Where two headings read alike, the source gives them in different places.
Key:
[1] = target: hROMK (hKir1.1) (Homo sapiens (Human), UniProt P48048); test: Thallium Flux Assay (ROMK channel functional thallium flux, FLIPR-Tetra); format: cell-based; settings: read-out: Thallium Flux IC50
Protocol: Cell Culture Conditions—HEK293 cells stably expressing hROMK (hKir1.1) were grown at 37° C. in a 10% CO2 humidified incubator in complete growth media: Dulbecco's Modified Eagle Medium supplemented with non-essential amino acids, Penicillin/Streptomycin/Glutamine, G418 and FBS. At >80% confluency, aspirate the media from the flask and rinse with 10 mL Calcium/Magnesium-free PBS. […] To dislodge the cell, gently bang the side of the flask with your hand. Triturate the cells completely and then transfer the cells to 25 mL complete media. Centrifuge at 1,500 rpm for 6 min followed by resuspension in complete growth media and determine cell concentration. […] Under ideal growth conditions and appropriate tissue culture practices, this cell line is stable for 40-45 passages.
FluxOR Kit Components (Invitrogen F10017) • FluxOR™ Reagent (Component A) • FluxOR™ Assay Buffer (Component B)—10× Concentrate • PowerLoad™ Concentrate (Component C)—100× Concentrate • Probenecid (Component D)—Lyophilized sample is kept at −20° C. Water soluble, 100× after solubilization in 1 mL water. […] Store at 4° C. • Thallium sulfate (Tl2SO4) Concentrate (Component G)—50 mM in water. Store at 4° C. • DMSO (dimethyl sulfoxide, Component H)—1 mL (100%)
Can be stored at room temperature • Stimulant Buffer (prepared at 5× final concentration in 1× FluxOR™ Chloride-Free Buffer): 7.5 mM Thallium sulfate and 0.75 mM Potassium sulfate (to give a final assay concentration of 3 mM Thallium/0.3 mM Potassium). Store at 4° C. when not in use. If kept sterile, this solution is good for months.
Assay Protocol—The ROMK channel functional thallium flux assay is performed in 384 wells, using the FLIPR-Tetra instrument. HEK-hKir1.1 cells are seeded in Poly-D-Lysine microplates and kept in a 37° C.-10% CO2 incubator overnight. On the day of the experiment, the growth media is replaced with the FluxOR™ reagent loading buffer and incubated, protected from light, at ambient temperature (23-25° C.) for 90 min. The loading buffer is replaced with assay buffer±test compound followed by 30 min incubation at ambient temperature, where the Thallium/Potassium stimulant is added to the microplate.
Step Protocol • 1. Seed HEK-hKir1.1 cells (50 μl at 20,000 cells/well) in 384-well PDL coated Microplates • 2. Allow cells to adhere overnight in humidified 37° C./10% CO2 incubator • 3. Completely remove cell growth media from microplate and replace with 25 μl loading buffer • 4. Incubate Microplate at room temperature, protected form light, for 90 min • 5. Remove loading buffer and replace with 25 μl 1× Assay Buffer±test compound. • 6. Incubate microplate at room temperature, protected from light, for 30 min • 7. […] Excitation=400 nm, Emission=460 & 580 nm. Collect data for ˜10 min.
Data Calculation—The fluorescence intensity of wells containing 3 μM of a standard control ROMK inhibitor of the present invention is used to define the ROMK-sensitive component of thallium flux. Fluorescence in the presence of test compounds is normalized to control values to provide % fluorescence change.

[2] = target: Kir1.1 (ROMK1) (Homo sapiens (Human), UniProt P48048); test: Electrophysiology Assay (whole cell voltage clamp, IonWorks Quattro); format: cell-based; settings: block during voltage step to 0 mV
Sequence of Kir1.1 (ROMK1) (P48048 whole entry): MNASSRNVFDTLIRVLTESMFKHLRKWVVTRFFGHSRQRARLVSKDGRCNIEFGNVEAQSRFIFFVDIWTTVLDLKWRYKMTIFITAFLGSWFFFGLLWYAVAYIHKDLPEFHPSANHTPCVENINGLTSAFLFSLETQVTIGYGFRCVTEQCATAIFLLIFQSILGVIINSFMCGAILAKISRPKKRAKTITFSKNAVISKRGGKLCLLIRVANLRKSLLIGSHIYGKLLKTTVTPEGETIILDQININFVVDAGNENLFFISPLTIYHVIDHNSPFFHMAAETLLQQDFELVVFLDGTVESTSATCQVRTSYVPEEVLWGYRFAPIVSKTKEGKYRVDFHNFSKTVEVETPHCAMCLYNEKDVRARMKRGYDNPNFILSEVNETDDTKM
Protocol: Chinese hamster ovary cells stably expressing Kir1.1 channels were maintained in T-75 flasks in cell culture media in a humidified 10% CO2 incubator at 37° C. Prior to an experiment, Kir1.1 expression was induced by overnight incubation with 1 mM sodium butyrate. […] After centrifugation, the cell pellet was resuspended in approximately 4.0 mL of bath solution and placed in the IonWorks instrument. The intracellular solution consisted of (in mM): 80 K gluconate, 40 KCl, 20 KF, 3.2 MgCl2, 3 EGTA, 5 Hepes, pH 7.4. Electrical access to the cytoplasm was achieved by perforation in 0.13 mg/mL amphotericin B for 4 min. […] Voltage protocols and current recordings were performed using the IonWorks HT software/hardware system. Currents were sampled at 1 kHz. No correction for liquid junction potentials was used. The test pulse, consisting of a 100 ms step to 0 mV from a holding potential of −70 mV, followed by a 100 ms voltage ramp from −70 mV to +70 mV, was applied before and after a 6 min compound incubation period. Test compounds were prepared by diluting DMSO stock solutions into the bath solution at 3× the final concentration and placed in the instrument in 96-well polypropylene plates. Current amplitudes were measured using the IonWorks software.

[3] = HEK293 cells stably expressing hROMK (hKir1.1)
[4] = Electrophysiology IC50, Chinese hamster ovary cells stably expressing Kir1.1
[5] = Chinese hamster ovary cells stably expressing Kir1.1, read-out: Electrophysiology IC50

Sequence of hROMK (hKir1.1) (P48048 whole entry): as above

SMILES | IC50 [1, 3] [nM] | IC50 [2, 4] [nM] | IC50 [1] [nM] | IC50 [2, 5] [nM]
COc1cc(F)c([C@@H]2CN3CCN(C(=O)Cc4ccc(-n5cnnn5)cc4)C[C@H]3CO2)cc1C#N [Example 27, 4-fluoro-2-methoxy-5-[(3R,9aS)-8-{[4-(1H-tetrazol-1-yl)phenyl]acetyl}octahydropyrazino[2,1-c][1,4]oxazin-3-yl]benzonitrile] | 180 | 390 |  | 
COc1cc(CC(=O)N2CCN3C[C@H](c4ccc5c(c4)CCOC5=O)OC[C@H]3C2)ccc1C#N [Example 28, 2-methoxy-4-{2-oxo-2-[(3S,9aR)-3-(1-oxo-3,4-dihydro-1H-isochromen-6-yl)hexahydropyrazino[2,1-c][1,4]oxazin-8(1H)-yl]ethyl}benzonitrile] | 330 | 130 |  | 
COc1cc(CC(=O)N2CCN3C[C@@H](c4ccc5c(c4)CCOC5=O)OC[C@@H]3C2)ccc1C#N [Example 29, 2-methoxy-4-{2-oxo-2-[(3R,9aS)-3-(1-oxo-3,4-dihydro-1H-isochromen-6-yl)hexahydropyrazino[2,1-c][1,4]oxazin-8(1H)-yl]ethyl}benzonitrile] | 300 | 130 |  | 
COc1cc(CC(=O)N2CCN3C[C@@H](c4ccc5c(c4)CCOC5=O)OC[C@@H]3C2)c(F)cc1C#N [Example 30, 5-fluoro-2-methoxy-4-{2-oxo-2-[(3R,9aS)-3-(1-oxo-3,4-dihydro-1H-isochromen-6-yl)hexahydropyrazino[2,1-c][1,4]oxazin-8(1H)-yl]ethyl}benzonitrile] | 100 | 110 |  | 
COc1cc(CC(=O)N2CCN3C[C@H](c4ccc5c(c4)CCOC5=O)OC[C@H]3C2)c(F)cc1C#N [Example 31, 5-fluoro-2-methoxy-4-{2-oxo-2-[(3S,9aR)-3-(1-oxo-3,4-dihydro-1H-isochromen-6-yl)hexahydropyrazino[2,1-c][1,4]oxazin-8(1H)-yl]ethyl}benzonitrile] | 570 | 120 |  | 
COc1c([C@@H]2CN3CCN(C(=O)Cc4ccc(-n5cnnn5)cc4)C[C@H]3CO2)ccc(F)c1C#N [Example 32, 6-fluoro-2-methoxy-3-[(3R,9aS)-8-{[4-(1H-tetrazol-1-yl)phenyl]acetyl}octahydropyrazino[2,1-c][1,4]oxazin-3-yl]benzonitrile] |  | 140 | 100 | 
COc1c([C@H]2CN3CCN(C(=O)Cc4ccc(-n5cnnn5)cc4)C[C@H]3CO2)ccc(F)c1C#N [Example 33, 6-fluoro-2-methoxy-3-[(3S,9aS)-8-{[4-(1H-tetrazol-1-yl)phenyl]acetyl}octahydropyrazino[2,1-c][1,4]oxazin-3-yl]benzonitrile] | 110 | 130 |  | 
Cc1c([C@@H]2CN3CCN(C(=O)Cc4ccc(-n5cnnn5)cc4)C[C@H]3CO2)ccc(Cl)c1C#N [Example 34, 6-chloro-2-methyl-3-[(3R,9aS)-8-{[4-(1H-tetrazol-1-yl)phenyl]acetyl}octahydropyrazino[2,1-c][1,4]oxazin-3-yl]benzonitrile] | 190 | 200 |  | 
Cc1c([C@H]2CN3CCN(C(=O)Cc4ccc(-n5cnnn5)cc4)C[C@H]3CO2)ccc(Cl)c1C#N [Example 35, 6-chloro-2-methyl-3-[(3S,9aS)-8-{[4-(1H-tetrazol-1-yl)phenyl]acetyl}octahydropyrazino[2,1-c][1,4]oxazin-3-yl]benzonitrile] | 760 | 260 |  | 
Cc1cc(F)c(C#N)cc1[C@@H]1CN2CCN(C(=O)Cc3ccc(-n4cnnn4)cc3)C[C@H]2CO1 [Example 38, 2-fluoro-4-methyl-5-[(3R,9aS)-8-{[4-(1H-tetrazol-1-yl)phenyl]acetyl}octahydropyrazino[2,1-c][1,4]oxazin-3-yl]benzonitrile] | 110 |  |  | 180
Cc1c([C@@H]2CN3CCN(C(=O)Cc4ccc(-n5cnnn5)cc4)C[C@H]3CO2)csc1C#N [Example 39, 3-methyl-4-[(3R,9aS)-8-{[4-(1H-tetrazol-1-yl)phenyl]acetyl}octahydropyrazino[2,1-c][1,4]oxazin-3-yl]thiophene-2-carbonitrile] | 60 | 60 |  | 
Cc1c([C@H]2CN3CCN(C(=O)Cc4ccc(-n5cnnn5)cc4)C[C@H]3CO2)csc1C#N [Example 40, 3-methyl-4-[(3S,9aS)-8-{[4-(1H-tetrazol-1-yl)phenyl]acetyl}octahydropyrazino[2,1-c][1,4]oxazin-3-yl]thiophene-2-carbonitrile] | 90 | 80 |  | 
Cc1c(C#N)cccc1[C@@H]1CN2CCN(C(=O)Cc3ccc(-n4cnnn4)cc3)C[C@H]2CO1 [Example 42, 2-methyl-3-[(3R,9aS)-8-{[4-(1H-tetrazol-1-yl)phenyl]acetyl}octahydropyrazino[2,1-c][1,4]oxazin-3-yl]benzonitrile] | 90 |  |  | 130
Cc1c(C#N)cccc1[C@H]1CN2CCN(C(=O)Cc3ccc(-n4cnnn4)cc3)C[C@H]2CO1 [Example 43, 2-methyl-3-[(3S,9aS)-8-{[4-(1H-tetrazol-1-yl)phenyl]acetyl}octahydropyrazino[2,1-c][1,4]oxazin-3-yl]benzonitrile] | 140 |  |  | 170
Cc1c([C@H]2CN3CCN(C(=O)C4Cc5ccc(-n6cnnn6)cc5C4)C[C@H]3CO2)ccc(F)c1C#N (stereo partly drawn) [Example 44, 6-fluoro-2-methyl-3-[(3S,9aS)-8-{[5-(1H-tetrazol-1-yl)-2,3-dihydro-1H-inden-2-yl]carbonyl}octahydropyrazino[2,1-c][1,4]oxazin-3-yl]benzonitrile] | 370 |  |  | 160
Cc1c([C@@H]2CN3CCN(C(=O)C(C)c4ccc(-n5cnnn5)cc4)C[C@H]3CO2)ccc(F)c1C#N (stereo partly drawn) [Example 45, 6-fluoro-2-methyl-3-[(3R,9aS)-8-{2-[4-(1H-tetrazol-1-yl)phenyl]propanoyl}octahydropyrazino[2,1-c][1,4]oxazin-3-yl]benzonitrile] | 330 |  |  | 210
Cc1c([C@H]2CN3CCN(C(=O)Cc4cccc(-n5cnnn5)c4)C[C@H]3CO2)ccc(F)c1C#N [Example 46, 6-fluoro-2-methyl-3-[(3S,9aS)-8-{[3-(1H-tetrazol-1-yl)phenyl]acetyl}octahydropyrazino[2,1-c][1,4]oxazin-3-yl]benzonitrile] | 240 |  |  | 140
Cc1c([C@@H]2CN3CCN(C(=O)Cc4cccc(-n5cnnn5)c4)C[C@H]3CO2)ccc(F)c1C#N [Example 47, 6-fluoro-2-methyl-3-[(3R,9aS)-8-{[3-(1H-tetrazol-1-yl)phenyl]acetyl}octahydropyrazino[2,1-c][1,4]oxazin-3-yl]benzonitrile] | 300 |  |  | 90
Cc1c(C2CN3CCCN(C(=O)Cc4ccc(-n5cnnn5)cc4)CC3CO2)ccc2c1COC2=O (centres unmarked) [Example 50, 4-methyl-5-(9-{[4-(1H-tetrazol-1-yl)phenyl]acetyl}octahydro-1H-[1,4]oxazino[4,3-a][1,4]diazepin-3-yl)-2-benzofuran-1(3H)-one] | 740 | 180 |  | 

— US9573961B2, “Inhibitors of the renal outer medullary potassium channel” (Merck Sharp & Dohme Corp., priority 2012, dated 2017)
